These results are taken from EP4461367A1, “NEW TERNATIN-TYPE CYCLOPEPTIDES FOR USE IN THERAPY” (Centre National de la Recherche Scientifique, priority 2023, dated 2024).

Starred links: 1 amine or outer side, 2 acyl side, 3 side chain; linkers in the order of their positions; H or OH if unused. Non-standard residues stand in square brackets, D forms with d. Residues, ends and D or L forms follow the SMILES beside them. ξ: configuration not given here. X5 = CC(CC(C(=O)[*:2])N(C)[*:1])C(C)OC=O; X2 = CC(COC=O)CC(C(=O)[*:2])N(C)[*:1]; X4 = CC(O)C(C)CC(C(=O)[*:2])N(C)[*:1]; ξNle(4-Me,5-ene) = C=CC(C)CC(N)C(=O)O; X1 = CCC(C)CC(C(=O)[*:2])N(C)[*:1]; X3 = CC(CO)CC(C(=O)[*:2])N(C)[*:1]; ξLeu(3ξ-OH) = CC(C)C(O)C(N)C(=O)O; NMeA = CN[CH](C)C(=O)O Bounds are passed on as bounds.

Series [1] in a line: Cellular cytotoxicity, MTT assay, Huh7. The class given is cell-based. The settings on record: human, Huh7 cells, 48 h of treatment. The procedure:
(§1) Cytotoxicity of the compounds of formula (I) was evaluated on A549, Vero E6 and Huh7 cells by measuring the mitochondrial activity after 48 h of treatment by an MTT assay.

The test system of series [2] is ZIKV^GFP. Kind of series: ZIKV^GFP antiviral assay, GFP by FACS at 48 h post-infection. The class given is cell-based. The settings on record: Zika virus, Vero, read-out: IC50 against ZIKV. The source says: Vero cells were infected with ZIKV^GFP (MOI=2) and simultaneously treated with increasing concentrations of the compound C1 or ternatin (ten-fold serial dilutions of considered compound).

Series [3] concerns ZIKV^GFP. Kind of series: Time of drug-addition assay, ZIKV^GFP in A549 cells. The settings on record: 10 nM, Figure 11C.
Protocol: Time of drug-addition assay aims at characterizing the antiviral action of the compounds of the invention on various stages of the dissecting virus infectious cycle.
Compound C1 (10 nM) or vehicle were used for treatment of A549 cells for viral inactivation assay, concurrently to virus input (Entry), after virus exposure (Replication) with specific washing steps and incubation periods (Figure 11A).
The data represent the means ± SD of four independent experiments performed in triplicate, and are expressed as relative values compared to vehicle-treated cells.
For series [4], the system named is ZIKV^GFP. Kind of series: ZIKV^GFP antiviral assay, GFP by FACS at 24 h post-infection. Type of series: cell-based. The settings on record: Zika virus. The source says: The antiviral activity of the compounds (C1 and C3 to C7) of formula (I) has been evaluated against Zika virus as representative of flaviviruses. Vero, A549 or Huh7.5 cells were infected with ZIKV^GFP (MOI=2) and simultaneously treated with increasing concentrations of the compounds of formula (I) (C1 and C3 to C7) or ternatin (ten-fold serial dilutions of considered compound).

The subject of the next series is HCoV-229E-Luc. Kind of series: microbe, parasite or virus in culture. The class given is cell-based, human alphacoronavirus HCoV-229-E. The settings on record: Alphacoronavirus, Huh-7, 24 h, read-out: IC50 (nM) Huh7.
The subject of series [5] is SARS-CoV-2. In words: Preclinical model in human primary bronchial epithelial cells (Mucilair), viral RNA by qRTPCR. The settings on record: Severe acute respiratory syndrome coronavirus 2, Primary bronchial epithelial cell, viral RNA at 72 h post-inoculation, Figure 12, read-out: inhibition of the infection by SARS-CoV-2. The class given is cell-based. As to the method: The compound C1 was evaluated on a preclinical model in human primary bronchial epithelial cells (Mucilair) against SARS-CoV-2 (T. Meunier et al., Antimicrob Agents Chemother. 2022 Feb; 66(2): e01581-21). Mucilair cells were inoculated with SARS-CoV-2 in the presence of compound C1 at 0.75, 7.5 or 75 pM for 1 h at the apical side. Inoculum was removed 1 h post-infection. At 72 h post-inoculation, cells were lysed to extract RNA. Viral RNA was quantified by qRTPCR. For RNA quantification, data are expressed relative to the Mock-treated control.

A short description of series [6]: Cellular cytotoxicity, MTT assay, Vero E6. The class given is cell-based. The settings on record: african green monkey, Vero E6 cells, 48 h of treatment. As to the method: as §1
For a further series, the system named is DENV. In words: DENV antiviral assay, infected cells by FACS at 72 h post-infection. Type of series: cell-based. The settings on record: Dengue virus; Vero cells, DENV MOI = 0.1, 72 h post-infection, Figure 9C; read-out: IC50 against DENV. The procedure: At 72 h post-infection, the percentage of DENV-infected cells was measured by FACS assay.
The next series has as its system RRV^GFP. Kind of series: microbe, parasite or virus in culture. The settings on record: Ross River virus, Vero, 18 h, read-out: IC50 against RRV.
Series [7] is described as follows: Cellular cytotoxicity, MTT assay, A549. Type of series: cell-based. The settings on record: human, A549 cells, 48 h of treatment. The procedure:
as §1

Series [8] concerns SARS-CoV-2. In words: SARS-CoV-2 viral progeny, PFU assay (plaque-forming assay) of Huh7 supernatant. The class given is cell-based. The settings on record: Huh7 cells, MOI=0.01, 24 h post-infection, at 0.6 nM, Figure 10B. The procedure: The compound C1 has been tested on the betacoronavirus SARS-CoV-2. Huh7 cells were infected with SARS-CoV-2 (MOI=0.01) and simultaneously treated with increasing concentrations of the compound of formula (I). At 24 h post-infection, cell supernatant was recovered for viral titration (Figure 10B). Viral progeny was measured by a PFU assay (plaque-forming assay) by quantifying infectious particles in the supernatant (PFU/mL).

Setting [9] is: A549, 24 h, read-out: IC50 (nM) A549.
Where [10] appears, read: Huh7.5, 24 h, read-out: IC50 (nM) Huh7.5.
Where [11] appears, read: Vero, 24 h, read-out: IC50 (nM) Vero.

Protocol for RRV^GFP: At 18 h post-infection, the percentage of GFP expressed by the cells is measured by FACS (Flow cytometric analysis of GFP fluorescence). Data represent the means ± SD of four independent experiments performed in triplicate and are expressed as relative values compared to mock-treated control.
Protocol for adult zebrafish: (D) Total distance travelled at 1 day post injection. […] After injection, fish were observed during 5 days. Statistical analyses were conducted using unpaired t-test comparisons, n = 5 (n: number of fishes per group).

Regarding `C=CC(C)CC1NC(=O)C(CC(C)C)N(C)C(=O)C(C)N(C)C(=O)C(C(C)CC)NC(=O)C(C(O)C(C)C)NC(=O)C(C)N(C)C(=O)C(C)N(C)C1=O` (stereo not shown) [Compound C1, comptonellin A], the CC50 at 48 h in [1] turned out to be 4.9 nM; in series [6], 200 nM; in series [7], 11.2 nM. The IC50 stood at 60 nM in the series on ZIKV^GFP [2]; 4 nM with ZIKV^GFP [4] (setting [9]); 2 nM in the series with ZIKV^GFP [4] (setting [10]); 9 nM in the series on ZIKV^GFP [4] (setting [11]); 5 nM in the series with HCoV-229E-Luc; 42 nM in the series on DENV. Also, the IC50 in the series with RRV^GFP was found to be 57 nM. In addition, the “stage of viral infection targeted” value with ZIKV^GFP [3] is “targets late stages of viral infection”. Besides, in the series with SARS-CoV-2 [5], the inhibition at 75 pM was greater than 98%. Also, the “toxicity in adult zebrafish” value with adult zebrafish (at the effective antiviral dose, injected 10 ng/µL, observed during 5 days) was “no toxicity”. The “fine-tune locomotor activity of zebrafish” value with adult zebrafish (injected with 10 ng/µL, 1 day post injection, Figure 13) is “did not impair fine-tune locomotor activity”. In the series on SARS-CoV-2 [8], the “reduces SARS-CoV-2 viral progeny production” value is recorded as 3 logs.
On to `C=CC(C)CC1NC(=O)C(CC(C)CC)N(C)C(=O)C(C)N(C)C(=O)C(C(C)CC)NC(=O)C(C(O)C(C)C)NC(=O)C(C)N(C)C(=O)C(C)N(C)C1=O` (stereo not shown) [Compound C3, comptonellin C] (cyclo([X1][ξNle(4-Me,5-ene)][NMeA][NMeA][ξLeu(3ξ-OH)]I[NMeA]); configuration not given here), for which the IC50 in the series on ZIKV^GFP [4] (setting [9]) amounted to 0.5 nM; in the series with ZIKV^GFP [4] (setting [10]), 0.003 nM; with ZIKV^GFP [4] (setting [11]), 9 nM; in the series on HCoV-229E-Luc, 2.4 nM. This molecule also gave a CC50 at 48 h in series [6] of 412 nM.
Regarding `C=CC(C)CC1NC(=O)C(CC(C)CO)N(C)C(=O)C(C)N(C)C(=O)C(C(C)CC)NC(=O)C(C(O)C(C)C)NC(=O)C(C)N(C)C(=O)C(C)N(C)C1=O` (stereo not shown) [Compound C4, comptonellin D] (cyclo([X3][ξNle(4-Me,5-ene)][NMeA][NMeA][ξLeu(3ξ-OH)]I[NMeA]); configuration not given here), the CC50 at 48 h in series [1] was found to be 9.35 nM; in series [6], 3760 nM; in series [7], 52.8 nM. Moreover, the IC50 with ZIKV^GFP [4] (setting [9]) turned out to be 26 nM; in the series with ZIKV^GFP [4] (setting [10]) it was 12 nM; in the series with ZIKV^GFP [4] (setting [11]), 163 nM; with HCoV-229E-Luc it was 96.8 nM.
Take `C=CC(C)CC1NC(=O)C(CC(C)C(C)O)N(C)C(=O)C(C)N(C)C(=O)C(C(C)CC)NC(=O)C(C(O)C(C)C)NC(=O)C(C)N(C)C(=O)C(C)N(C)C1=O` (stereo not shown) [Compound C5, comptonellin E] (cyclo([X4][ξNle(4-Me,5-ene)][NMeA][NMeA][ξLeu(3ξ-OH)]I[NMeA]); configuration not given here): the CC50 at 48 h came out at 31.9 nM in series [1], 4810 nM in [6] and 99.8 nM in series [7]. The IC50 was 40 nM in the series with ZIKV^GFP [4] (setting [9]), 11 nM with ZIKV^GFP [4] (setting [10]), 244 nM in the series with ZIKV^GFP [4] (setting [11]) and 98.5 nM in the series on HCoV-229E-Luc.
Take `C=CC(C)CC1NC(=O)C(CC(C)COC=O)N(C)C(=O)C(C)N(C)C(=O)C(C(C)CC)NC(=O)C(C(O)C(C)C)NC(=O)C(C)N(C)C(=O)C(C)N(C)C1=O` (stereo not shown) [Compound C6, comptonellin F] (cyclo([X2][ξNle(4-Me,5-ene)][NMeA][NMeA][ξLeu(3ξ-OH)]I[NMeA]); configuration not given here): the CC50 at 48 h in series [1] was found to be 22.1 nM; in series [6], 3530 nM; in series [7] it was 41 nM. The IC50 came to 13 nM with ZIKV^GFP [4] (setting [9]), 9 nM with ZIKV^GFP [4] (setting [10]), 115 nM in the series with ZIKV^GFP [4] (setting [11]) and 36.8 nM with HCoV-229E-Luc.
For `C=CC(C)CC1NC(=O)C(CC(C)C(C)OC=O)N(C)C(=O)C(C)N(C)C(=O)C(C(C)CC)NC(=O)C(C(O)C(C)C)NC(=O)C(C)N(C)C(=O)C(C)N(C)C1=O` (stereo not shown) [Compound C7, comptonellin G] (cyclo([X5][ξNle(4-Me,5-ene)][NMeA][NMeA][ξLeu(3ξ-OH)]I[NMeA]); configuration not given here), the values for the CC50 at 48 h in series [1], in series [6] and in series [7] were 93.9 nM, 379 nM and 80.6 nM, respectively. For the same molecule, the IC50 in the series on ZIKV^GFP [4] (setting [9]) turned out to be 46 nM; in the series with ZIKV^GFP [4] (setting [10]), 16 nM; in the series on ZIKV^GFP [4] (setting [11]) it was 176 nM; in the series on HCoV-229E-Luc it was 15 nM.
With `COc1cc(-c2oc3c(OC)c(OC)cc(O)c3c(=O)c2OC)ccc1O` [Ternatin, ternatin], the IC50 was found to be 860 nM in the series on ZIKV^GFP [2]; 92 nM with ZIKV^GFP [4] (setting [9]); 23 nM in the series on ZIKV^GFP [4] (setting [10]); 584 nM in the series on ZIKV^GFP [4] (setting [11]); 157 nM with HCoV-229E-Luc; 493 nM in the series with DENV. The IC50 in the series on RRV^GFP stood at 977 nM.
